Assay results published in patent US20020146823A1, “Method for promoting hematopoietic and mesenchymal cell proliferation and differentiation” (The University of Southern California, priority 1997, published 2002).
“Also recorded” adds a separate entry of the source. No end group written: not given here.

Assays:
[1] = system: Rat Peritoneal Macrophages; assay: Phagocytic capability of rat peritoneal macrophages (opsonized yeast ingestion); assay type: cell-based, Sprague Dawley rats
Protocol: Resident peritoneal macrophages have very little phagocytic activity. Exposure of macrophages to inflammatory or activating agents will increase this macrophage function. Resident peritoneal macrophages were harvested from C57B1/6 mice or Sprague Dawley rats and resuspended at a concentration of 1×10^6 cells/ml in phosphate buffered saline (PBS). Five separate 0.5 ml cell aliquots were placed on a glass coverslip in a 35 mm petri dish. Prior to incubation, either 0.5 ml of PBS, AII, or AII analogues or fragments at between 1-1000 ug/ml final concentration was added to the individual cover slips. The dishes containing the cover slips were then incubated at 37° C. for 4 hours, after which the cover slips were washed 3 to 6 times with PBS. Opsonized yeast particles (Sigma Chemical Co.) (yeast opsonized with adult serum from the same species as that under study) were added to the cover slips and incubated for 2 hours, after which the cover slips were again washed with PBS and inverted onto a glass slide. The number of macrophages that ingested yeast and the number of yeast per macrophage ingested was then determined microscopically. At least 100 macrophages per coverslip were counted. The data from this study are summarized in Tables 3 and 4 and FIGS. 1 and 2.

[2] = system: human peripheral blood mononuclear cells (PBMC); assay: Respiratory burst (hydrogen peroxide generation) in human PBMC; assay type: cell-based; details: PBMC; presence and absence of PMA
Protocol: The respiratory burst of leukocytes (macrophages and polymorphonuclear neutrophils) is one component of the mediator system used to kill bacteria. As with phagocytosis, the level of this respiratory burst activity in resident macrophages is low. […] Studies were conducted to assess the effect of in vitro exposure of murine or rat peritoneal macrophages and human peripheral blood mononuclear cells (PBMC) to various concentrations of AII on the capacity to generate hydrogen peroxide via the respiratory burst system. For the human studies, five different donors were examined.
The murine or rat peritoneal cells were harvested by lavage with 5-15 ml of cold PBS with 0.5% bovine serum albumin. The human PBMC were harvested by venipuncture from normal human volunteers and isolated from peripheral blood by Ficoll Hypaque density centrifugation. After isolation, the cells were resuspended at 1×10^6 cells/ml and placed at 100 μl per well into 96 well plates. The cells were incubated with various concentrations of AII or AII analogues and fragments for 4 hours at 37° C. The cells were then preloaded with a fluorescent probe for hydrogen peroxide, 2,7 dichlorofluorescein acetate, which is nonfluorescent in the absence of hydrogen peroxide. Fifteen minutes later, 10 ng/ml of phorbol myristate acetate (+PMA) or PBS (−PMA) was added to stimulate the production of hydrogen peroxide. One hour after stimulation the level of fluorescence produced was measured on a Cytofluor 2350 multiwell fluorometer.

[3] = Tests of effectiveness of AII fragments (test not specified)
Source text: Particularly preferred embodiments of this class include the following: AII, AIII or AII(2-8), […] [SEQ ID NO:2]; […] AII(1-7), […] {SEQ ID NO:4]; AII(2-7). […] [SEQ ID NO:5]; AII(3-7), […] [SEQ ID NO:6]; AII(5-8), […] [SEQ ID NO:7]; AII(1-6), […] [SEQ ID NO:8]; AII(1-5), […] [SEQ ID NO:9]; AII(1-4), […] [SEQ ID NO:10]; and AII(1-3), […] [SEQ ID NO:11]. Other preferred embodiments include: […] [SEQ ID NO:12] and […] [SEQ ID NO:13]. Still another preferred embodiment encompassed within the scope of the invention is a peptide having the sequence […] [SEQ ID NO:31]. AII(6-8), […] [SEQ ID NO:14] and AII(4-8), […] Particularly preferred is angiotensin III of the formula […] [SEQ ID NO:2]. Other preferred compounds include peptides having the structures […] [SEQ ID NO:17] and […] [SEQ ID NO:18].

| Substance | #/Cell ([1]; peptide 100 μg/ml) | % w/Yeast ([1]; peptide 100 μg/ml) [%] | Number of Macrophages with Yeast (Yeast Number) 0 ([1]; peptide 100 μg/ml) | Number of Macrophages with Yeast (Yeast Number) 1-3 ([1]; peptide 100 μg/ml) | Number of Macrophages with Yeast (Yeast Number) 4-6 ([1]; peptide 100 μg/ml) | Number of Macrophages with Yeast (Yeast Number) ≧7 ([1]; peptide 100 μg/ml) | #/Cell ([1]; peptide 1000 μg/ml) | % w/Yeast ([1]; peptide 1000 μg/ml) [%] | Number of Macrophages with Yeast (Yeast Number) 0 ([1]; peptide 1000 μg/ml) | Number of Macrophages with Yeast (Yeast Number) 1-3 ([1]; peptide 1000 μg/ml) | Number of Macrophages with Yeast (Yeast Number) 4-6 ([1]; peptide 1000 μg/ml) | Number of Macrophages with Yeast (Yeast Number) ≧7 ([1]; peptide 1000 μg/ml) | respiratory burst capacity after pre-exposure to analogues and fragments of AII [2] | effectiveness [3] |
| --- | --- | --- | --- | --- | --- | --- | --- | --- | --- | --- | --- | --- | --- | --- |
| Asp-Arg-Val-Tyr-Ile-His-Pro (DRVYIHP; printed: Asp-Arg-Val-Tyr-Ile-His-Pro) [AII(1-7)] | 0.53 | 20.6 | 100 | 21 | 5 | 0 | 0.85 | 30.8 | 90 | 30 | 10 | 0 | an increase in the respiratory burst capacity was observed |  |
| Asp-Arg-Val-Tyr-Ile-His-Pro-Ile [GSD 28] |  |  |  |  |  | 0 | 0.02 | 1.0 | 100 | 1 | 0 | 0 | an increase in the respiratory burst capacity was observed |  |
| DRPYIHPF [GSD 24B] |  |  |  |  |  | 0 |  |  | 100 |  |  | 0 | an increase in the respiratory burst capacity was observed |  |
| His-Pro-Phe [AII(6-8)] |  |  |  |  |  |  |  |  |  |  |  |  |  | not to be effective |
| RVYAHPF [GSD 22A] |  |  |  |  |  | 0 |  |  | 100 |  |  | 0 | an increase in the respiratory burst capacity was observed |  |
| Tyr-Ile-His-Pro-Phe (YIHPF; printed: Tyr-Ile-His-Pro-Phe) [AII(4-8)] |  |  |  |  |  |  |  |  |  |  |  |  |  | not to be effective; also recorded: ineffective in repeated tests |
